# Results as given in PMC12541891 (MicrobiologyOpen, 2025).
# Where “and” joins values, the source holds several entries; their conditions need not be identical. Identical values can stand only once.
# What was measured:
# C. tropicalis biofilm [1] = experiment: Biofilm biomass by crystal violet (CV) assay; assay type: cell-based, Candida tropicalis
# Experimental: (§1) For all bacterial strains considered in the study, biofilm was performed on a 96‐well plate inoculated with 200 µL of a bacterial suspension 1 × 10^6 CFU/mL and incubated 24 h at 37°C. After incubation for 4 h at 37°C, the medium was aspirated, non‐adherent cells were removed, washed with PBS and added with 200 µL of fresh medium. […] Similarly, to perform fungal biofilm, the different Candida species were grown for 24 h at 28°C on a multi‐wells plate, washed twice with sterile PBS, and then resuspended at 37°C in RPMI 1640 plus 10% FBS at 2.5 × 10^7 cells. After incubation for 3 h at 37°C in six‐well polystyrene plates, the medium was aspirated, non‐adherent cells were removed and washed with PBS.
# (§2) To quantify bacterial and Candida biofilm biomass, CV, a dye able to color the biofilm matrix, was used. Firstly, after the removal of supernatant and washing with PBS, biofilm was fixed adding 100 µL of 99% methanol for 15 min. Then, methanol was rinsed off and the plates were air‐dried. Subsequently, 100 µL of a 0.1% of CV solution were added to wells and, after 20 min of contact, the plates were washed under running tap water. To dissolve the bounded CV, 150 µL of 33% of glacial acetic acid were added to wells. The absorbance was measured at 590 nm using an automatic microplate reader, Tecan Sunrise (Tecan Group Ltd., Männedorf, Switzerland).
# E. coli biofilm = experiment: Biofilm biomass by crystal violet (CV) assay; assay type: cell-based, Escherichia coli; settings: substance alone at MIC
# Experimental: as §1, §2
# ESBL-Ec biofilm = experiment: Biofilm biomass by crystal violet (CV) assay; assay type: cell-based, Escherichia coli; settings: substance alone at MIC
# Experimental: as §1, §2
# C. glabrata biofilm [2] = experiment: Biofilm biomass by crystal violet (CV) assay; assay type: cell-based, Candida glabrata
# Experimental: as §1, §2
# C. tropicalis biofilm [3] = experiment: Biofilm metabolic activity by XTT-reduction assay; assay type: cell-based, Candida tropicalis
# Experimental: as §1
# (§3) The biofilm metabolic activity was evaluated by XTT assay, that highpoints the activity through the reduction of the tetrazolium salt to formazan. After the removal of supernatant and washing with PBS, a solution of XTT‐menadione solution were added to wells. The XTT‐menadione was prepared dissolving XTT powder in prewarmed PBS (37°C) at 0.5 g/L. The solution was sterilized through a 0.22 μm pore size filter. Before each assay, the XTT solution was thawed and supplemented with menadione, a 10 mM stock dissolved in acetone to a final concentration 1 μM. Plates were incubated for 3 h at 37°C in the dark and then the absorbance was measured at 492 nm using the microplate reader, Tecan Sunrise.
# C. albicans biofilm [4] = experiment: Biofilm metabolic activity by XTT-reduction assay; assay type: cell-based, Candida albicans
# Experimental: as §1, §3
# MRSA biofilm [5] = experiment: Biofilm metabolic activity by XTT-reduction assay; assay type: cell-based, Staphylococcus aureus; settings: substance alone at MIC
# Experimental: as §1, §3
# S. aureus biofilm [6] = experiment: Biofilm metabolic activity by XTT-reduction assay; assay type: cell-based, Staphylococcus aureus; settings: substance alone at MIC
# Experimental: as §1, §3
# C. krusei biofilm = experiment: Biofilm biomass by crystal violet (CV) assay; assay type: cell-based, Candida krusei; settings: substance alone at MIC
# Experimental: as §1, §2
# C. glabrata DSY562 = experiment: MIC and MFC by microbroth dilution; assay type: cell-based, Candida glabrata; settings: Nakaseomyces glabratus, DSY562
# Experimental: No substance was added, in one well, for growth control. A bacterial suspension of 1 × 10^8 CFU/mL was inoculated into all wells of the plate and incubated for 24 h at 37°C. […] The dilutions ranged from 4 to 2000 µg/mL for the substances. The inoculum size was about 2.5×10^3 cells/mL. The plates were incubated at 28°C for 24–48 h. The MIC was determined as the lowest substances' concentration where no visible bacterial or fungal growth was observed. […] Each antimicrobial assay was performed in triplicate.
# MRSA biofilm [7] = experiment: Biofilm biomass by crystal violet (CV) assay; assay type: cell-based, Staphylococcus aureus
# Experimental: as §1, §2
# S. aureus biofilm [8] = experiment: Biofilm biomass by crystal violet (CV) assay; assay type: cell-based, Staphylococcus aureus; settings: substance alone at MIC
# Experimental: as §1, §2
# C. albicans biofilm [9] = experiment: Biofilm biomass by crystal violet (CV) assay; assay type: cell-based, Candida albicans
# Experimental: as §1, §2
# A549 cell line = experiment: MTT cytotoxicity assay; settings: A549, 24 h contact, 15-125 µg/mL tested
# Experimental: (§4) These cell lines were purchased from the American Type Culture Collection (ATCC HTB‐37, Rockville, USA) and stored in liquid nitrogen. T24 cells were cultured in RPMI, supplemented with 10% FBS, 2 mM glutamine, 100 U/mL penicillin, and 100 µg/mL streptomycin. A549 and Caco‐2 cells were cultured in DMEM, supplemented with 10% FBS, 100 U/mL penicillin and 100 μg/mL streptomycin. Cultures were incubated at 37°C in a humidified 5% CO2 atmosphere.
# (§5) In a 96‐well plate, 200 μL of cell suspension (10^4 cells/well) were added to each well and plates were incubated at 37°C, 5% CO2. […] Untreated cells were taken as control. After 24 h of treatment, culture medium was replaced with 200 μL of fresh medium added with MTT (5 mg/mL), then plates were incubated for 4 h at 37°C, 5% CO2 atmosphere. Afterward, culture medium with MTT was removed and 200 μl of DMSO were added to each well to dissolve the formazan crystals formed in living cells. After 15 min of incubation, the absorbance was measured at 570 nm, with the reference set at 620 nm, using the automatic microplate reader, Tecan Sunrise (Kumar et al. [2018]). Controls in all the experiments were: (i) wells without the substances assayed, as positive cells growth control; (ii) wells added with ethanol or DMSO in the same amounts in which the substances were suspended, as cells growth control in presence of the substances' solvents.
# Caco-2 cell line = experiment: MTT cytotoxicity assay; settings: Caco-2, 24 h contact, 15-125 µg/mL tested
# Experimental: as §4, §5
# C. glabrata biofilm [10] = experiment: Biofilm metabolic activity by XTT-reduction assay; assay type: cell-based, Candida glabrata
# Experimental: as §1, §3
# [11] = biofilm in formation, sub-MIC concentrations alone or in combination (Table 5), listed as C
# [12] = preformed biofilm (24 h), substance alone at MIC
# [13] = preformed biofilm, sub-MIC concentrations alone or in combination (Table 5), listed as C
# [14] = biofilm in formation (3 h), substance alone at MIC
smiles,measurement,setting,value
"Cc1ccc(C(C)C)cc1O [Carvacrol, 2‐methyl‐5‐isopropyl phenol]",Percentage of biomass reduction,C. tropicalis biofilm [1]; [11],25.3%
same,Percentage of biomass reduction,C. tropicalis biofilm [1]; [12],57.4%
same,Percentage of biomass reduction,C. tropicalis biofilm [1]; [13],20.8%
same,Percentage of biomass reduction,E. coli biofilm; biofilm in formation (4 h),70.6%
same,Percentage of biomass reduction,E. coli biofilm; preformed biofilm (24 h),62.2%
same,Percentage of biomass reduction,ESBL-Ec biofilm; biofilm in formation (4 h),55.9%
same,Percentage of biomass reduction,ESBL-Ec biofilm; preformed biofilm (24 h),59.6%
same,Percentage of biomass reduction,C. glabrata biofilm [2]; [11],64.9%
same,Percentage of biomass reduction,C. glabrata biofilm [2]; [12],52.9%
same,Percentage of biomass reduction,C. glabrata biofilm [2]; [13],44.3%
same,Percentage of metabolic activity reduction,C. tropicalis biofilm [3]; [14],88.7%
same,Percentage of metabolic activity reduction,C. tropicalis biofilm [3]; [11],35.0%
same,Percentage of metabolic activity reduction,C. tropicalis biofilm [3]; [12],72.8%
same,Percentage of metabolic activity reduction,C. tropicalis biofilm [3]; [13],26.1%
same,Percentage of metabolic activity reduction,C. albicans biofilm [4]; [14],91%
same,Percentage of metabolic activity reduction,C. albicans biofilm [4]; [11],55.1%
same,Percentage of metabolic activity reduction,C. albicans biofilm [4]; [12],93%
same,Percentage of metabolic activity reduction,C. albicans biofilm [4]; [13],44.9%
same,Percentage of metabolic activity reduction,MRSA biofilm [5]; biofilm in formation (4 h),24.6%
same,Percentage of metabolic activity reduction,MRSA biofilm [5]; preformed biofilm (24 h),45.6%
same,Percentage of metabolic activity reduction,S. aureus biofilm [6]; biofilm in formation (4 h),54.9%
same,Percentage of metabolic activity reduction,S. aureus biofilm [6]; preformed biofilm (24 h),88%
same,Percentage of biomass reduction,C. krusei biofilm; biofilm in formation (3 h),18% and 18.4%
same,Percentage of biomass reduction,C. krusei biofilm; preformed biofilm (24 h),39.2%
same,MFC,C. glabrata DSY562,500 µg/mL
same,MIC,C. glabrata DSY562,250 µg/mL
same,Percentage of biomass reduction,"MRSA biofilm [7]; biofilm in formation (4 h), substance alone at MIC",26.7%
same,Percentage of biomass reduction,"MRSA biofilm [7]; biofilm in formation, sub-MIC concentrations alone or in combination (Table 5)",30%
same,Percentage of biomass reduction,MRSA biofilm [7]; [12],58%
same,Percentage of biomass reduction,S. aureus biofilm [8]; biofilm in formation (4 h),56.2%
same,Percentage of biomass reduction,S. aureus biofilm [8]; preformed biofilm (24 h),71.5%
same,Percentage of biomass reduction,C. albicans biofilm [9]; [11],53.5%
same,Percentage of biomass reduction,C. albicans biofilm [9]; [12],36%
same,Percentage of biomass reduction,C. albicans biofilm [9]; [13],29.6%
same,concentrations significantly cytotoxic,A549 cell line,> 31000 ng/mL
same,concentrations significantly cytotoxic,Caco-2 cell line,> 31000 ng/mL
same,Percentage of metabolic activity reduction,C. glabrata biofilm [10]; [14],92%
same,Percentage of metabolic activity reduction,C. glabrata biofilm [10]; [11],70%
same,Percentage of metabolic activity reduction,C. glabrata biofilm [10]; [12],91.0%
same,Percentage of metabolic activity reduction,C. glabrata biofilm [10]; [13],51.2%
